According to patent US8349827B2, “Substituted dipyrido-pyrimido-diazepine and benzo-pyrido-pyrimido compounds” (ArQule, Inc., priority 2009, dated 2013):

Experiments:
[1] = test system: KATO III; assay: MTS assay, KATO III cells; type: cell-based; settings: Homo sapiens, 72 hours
Procedure: (§1) Cells were maintained at 37° C., 5% CO2 in DMEM media supplemented with 1% fetal bovine serum, penicillin/streptomycin and fungizone (Invitrogen). Cells were seeded into 96-well tissue culture plates at 3000 per well and cultured at 37° C. for 18 hours. Test compounds were dissolved and diluted to 300× in DMSO then diluted 1:40 in DMEM. Cells were incubated with test compounds for 72 hours followed by incubation with tetrazolium compound (3-(4,5-dimethylthiazol-2-yl)-5-(3-carboxymethoxyphenyl)-2-(4-sulfophenyl)-2H-tetrazolium, inner salt; MTS) and the electron coupling reagent, phenazine methosulfate (PMS) for 4 hours. […] The ability of compounds to inhibit cell growth in this assay is correlated with the reduction of dehydrogenase enzyme activity found in metabolically active cells. The measurement of the absorbance of the formazan was assessed using an ENVISION™ (Perkin Elmer) microplate reader at 492 nm. The calculated IC50 value is the concentration of the test compound that causes a 50% decrease in the absorbance.

[2] = test system: NCI-H1299; assay: MTS assay, NCI-H1299 cells; type: cell-based; settings: Homo sapiens, 72 hours
Procedure: as §1

[3] = target: ABL T315I (Homo sapiens, UniProt P00519, T315I); assay: ABL Kinase Activity Assay (Elisa), ABL T315I; type: biochemical; settings: ATP 100 μM, read-out: Abl(T315I) Enzymetic assay (Elisa) % inhibition
Procedure: (§2) ABL Kinase Activity Assay
(§3) The disclosed compounds were assayed for their ability to inhibit the activity of ABL kinase. Nunc Maxisorb plates were coated with streptavidin by overnight incubation with 100 μL per well of 1 μg/ml streptavidin in DPBS. Prior to the experiment, the plates were washed with TBST (3×200 μL) and blocked for at least 3 hours by adding 150 μL of 5% BSA/TBST. The plates were washed with TBST (3×200 μL/well) and left dry immediately before the capture step.
(§4) The disclosed test compounds and controls (Gleevec) were prepared using the following assay buffer@10× desired final concentration (50 mM Tris pH 7.0, 0.02 mg/ml BSA, 10 mM MgCl2, 0.1 mM Na3VO4, 1 mM EGTA, 0.01% NP-40, 1 mM DTT in 10% glycerol/water). In a reaction plate, 5 μl test article (or control) and 30 μl ABL or ABL T315I (0.089 nM final concentration, in the above buffer) were added rapidly. The plate was incubated for 20 minutes. To the reaction plate was added ATP (100 μM final concentration) and AblTide (128 nM final concentration) in a volume of 15 μl. The plate was incubated at room temperature for one hour.
(§5) From the reaction plate, 40 μl was transferred to the streptavidin coated plate. The capture plate was incubated at room temperature for 30 minutes, then washed 3× with TBST. To the capture plate was added 100 μL/well of cell signaling anti-phospho tyrosine at a dilution of 1:3000 in 2% BSA/TBST. The plate was incubated for two hours at room temperature then washed 3× with TBST. To the capture plate was added 100 μL/well of alkaline phosphatase tagged goat anti mouse antibody at a dilution of 1:4000 in 2% BSA/TBST. The plate was incubated for one hour at room temperature then washed 3× with TBST.
(§6) The fluorescent readout was initiated by the addition of 100 μl/well of Attophos reagent (6 mg/10 mL). The reading was done on the Perkin Elmer Envision system.

[4] = target: ABL (Homo sapiens, UniProt P00519); assay: ABL Kinase Activity Assay (Elisa), ABL; type: biochemical; settings: ATP 100 μM, read-out: Abl Enzymetic assay (Elisa) % inhibition
Procedure: as §2, §3, §4, §5, §6

[5] = test system: DLD-1; assay: MTS assay, DLD-1 cells; type: cell-based; settings: Homo sapiens, 72 hours
Procedure: as §1

[6] = test system: MDA-MB-231; assay: MTS assay, MDA-MB-231 cells; type: cell-based; settings: Homo sapiens, 72 hours
Procedure: as §1

[7] = test system: PACA-2; assay: MTS assay, PACA-2 cells; type: cell-based; settings: 72 hours
Procedure: as §1

[8] = test system: PC-3; assay: MTS assay, PC-3 cells; type: cell-based; settings: Homo sapiens, 72 hours
Procedure: as §1

Cc1cnc(CNc2ncc3c(n2)-c2cccnc2Nc2cnccc2-3)cn1 [Example 6, N-[(5-methylpyrazin-2-yl)methyl]-9H-dipyrido[2,3-b:4′,3′-f]pyrimido[4,5-d]azepin-2-amine]
inhibition at 10 µM [1]: < 50% | inhibition at 10 µM [2]: < 50% | inhibition at 10 µM [3]: < 50% | inhibition at 10 µM [4]: < 50%

Fc1ccc(CNc2ncc3c(n2)-c2cccnc2Nc2cnccc2-3)cc1Cl [Example 9, N-(3-chloro-4-fluorobenzyl)-9H-dipyrido[2,3-b:4′,3′-f]pyrimido[4,5-d]azepin-2-amine]
inhibition at 10 µM [5]: 50 to 79% | inhibition at 10 µM [1]: 50 to 79% | inhibition at 10 µM [6]: < 50% | inhibition at 10 µM [2]: < 50% | inhibition at 10 µM [7]: < 50% | inhibition at 10 µM [3]: 80 to 100% | inhibition at 10 µM [4]: 80 to 100%

c1ccc(CNc2ncc3c(n2)-c2cccnc2Nc2cnccc2-3)cc1 [Example 12, N-benzyl-9H-dipyrido[2,3-b:4′,3′-f]pyrimido[4,5-d]azepin-2-amine]
inhibition at 10 µM [5]: < 50% | inhibition at 10 µM [1]: < 50% | inhibition at 10 µM [6]: < 50% | inhibition at 10 µM [2]: < 50% | inhibition at 10 µM [3]: 80 to 100% | inhibition at 10 µM [4]: 80 to 100%

Cc1ccc(CCNc2ncc3c(n2)-c2cccnc2Nc2cnccc2-3)cc1 [Example 16, N-[2-(4-methylphenyl)ethyl]-9H-dipyrido[2,3-b:4′,3′-f]pyrimido[4,5-d]azepin-2-amine]
inhibition at 10 µM [5]: < 50% | inhibition at 10 µM [1]: 50 to 79% | inhibition at 10 µM [6]: < 50% | inhibition at 10 µM [2]: < 50% | inhibition at 10 µM [7]: < 50% | inhibition at 10 µM [3]: 80 to 100% | inhibition at 10 µM [4]: 80 to 100%

Fc1ccc(CCNc2ncc3c(n2)-c2cccnc2Nc2cnccc2-3)cc1 [Example 19, N-[2-(4-fluorophenyl)ethyl]-9H-dipyrido[2,3-b:4′,3′-f]pyrimido[4,5-d]azepin-2-amine]
inhibition at 10 µM [5]: < 50% | inhibition at 10 µM [1]: < 50% | inhibition at 10 µM [6]: < 50% | inhibition at 10 µM [2]: < 50% | inhibition at 10 µM [3]: 80 to 100% | inhibition at 10 µM [4]: 80 to 100%

Fc1ccccc1CNc1ncc2c(n1)-c1cccnc1Nc1cnccc1-2 [Example 20, N-(2-fluorobenzyl)-9H-dipyrido[2,3-b:4′,3′-f]pyrimido[4,5-d]azepin-2-amine]
inhibition at 10 µM [5]: < 50% | inhibition at 10 µM [1]: < 50% | inhibition at 10 µM [6]: < 50% | inhibition at 10 µM [2]: < 50% | inhibition at 10 µM [7]: < 50% | inhibition at 10 µM [3]: 80 to 100% | inhibition at 10 µM [4]: 80 to 100%

c1ccc(CCNc2ncc3c(n2)-c2cccnc2Nc2cnccc2-3)cc1 [Example 28, N-(2-phenylethyl)-9H-dipyrido[2,3-b:4′,3′-f]pyrimido[4,5-d]azepin-2-amine]
inhibition at 10 µM [5]: < 50% | inhibition at 10 µM [1]: 50 to 79% | inhibition at 10 µM [6]: < 50% | inhibition at 10 µM [3]: 80 to 100% | inhibition at 10 µM [4]: 80 to 100%

Clc1cccc(CCNc2ncc3c(n2)-c2cccnc2Nc2cnccc2-3)c1 [Example 29, N-[2-(3-chlorophenyl)ethyl]-9H-dipyrido[2,3-b:4′,3′-f]pyrimido[4,5-d]azepin-2-amine]
inhibition at 10 µM [5]: < 50% | inhibition at 10 µM [1]: 80 to 100% | inhibition at 10 µM [6]: < 50% | inhibition at 10 µM [7]: < 50% | inhibition at 10 µM [3]: 80 to 100% | inhibition at 10 µM [4]: 80 to 100%

FC(F)(F)c1cccc(CNc2ncc3c(n2)-c2cccnc2Nc2cnccc2-3)c1 [Example 30, N-[3-(trifluoromethyl)benzyl]-9H-dipyrido[2,3-b:4′,3′-f]pyrimido[4,5-d]azepin-2-amine]
inhibition at 10 µM [5]: 50 to 79% | inhibition at 10 µM [1]: 80 to 100% | inhibition at 10 µM [2]: < 50% | inhibition at 10 µM [7]: < 50% | inhibition at 10 µM [3]: 80 to 100% | inhibition at 10 µM [4]: 80 to 100%

Clc1ccc(CCNc2ncc3c(n2)-c2cccnc2Nc2cnccc2-3)cc1 [Example 31, N-[2-(4-chlorophenyl)ethyl]-9H-dipyrido[2,3-b:4′,3′-f]pyrimido[4,5-d]azepin-2-amine]
inhibition at 10 µM [5]: 50 to 79% | inhibition at 10 µM [1]: 80 to 100% | inhibition at 10 µM [2]: < 50% | inhibition at 10 µM [7]: < 50% | inhibition at 10 µM [3]: 80 to 100% | inhibition at 10 µM [4]: 80 to 100%

COc1cccc(CNc2ncc3c(n2)-c2cccnc2Nc2cnccc2-3)c1 [Example 32, N-(3-methoxybenzyl)-9H-dipyrido[2,3-b:4′,3′-f]pyrimido[4,5-d]azepin-2-amine]
inhibition at 10 µM [5]: 50 to 79% | inhibition at 10 µM [1]: < 50% | inhibition at 10 µM [6]: < 50% | inhibition at 10 µM [2]: 50 to 79% | inhibition at 10 µM [7]: < 50% | inhibition at 10 µM [3]: 80 to 100% | inhibition at 10 µM [4]: 80 to 100%

COc1cc(CNc2ncc3c(n2)-c2cccnc2Nc2cnccc2-3)cc(OC)c1 [Example 36, N-(3,5-dimethoxybenzyl)-9H-dipyrido[2,3-b:4′,3′-f]pyrimido[4,5-d]azepin-2-amine]
inhibition at 10 µM [5]: < 50% | inhibition at 10 µM [1]: < 50% | inhibition at 10 µM [2]: < 50% | inhibition at 10 µM [7]: < 50% | inhibition at 10 µM [3]: 80 to 100% | inhibition at 10 µM [4]: 50 to 79%

c1cnc2c(c1)-c1nc(NCCCN3CCCC3)ncc1-c1ccncc1N2 [Example 37, N-(3-pyrrolidin-1-ylpropyl)-9H-dipyrido[2,3-b:4′,3′-f]pyrimido[4,5-d]azepin-2-amine]
inhibition at 10 µM [6]: < 50% | inhibition at 10 µM [2]: < 50% | inhibition at 10 µM [7]: < 50% | inhibition at 10 µM [4]: 50 to 79%

Cc1cccc(CCNc2ncc3c(n2)-c2cccnc2Nc2cnccc2-3)c1 [Example 41, N-[2-(3-methylphenyl)ethyl]-9H-dipyrido[2,3-b:4′,3′-f]pyrimido[4,5-d]azepin-2-amine]
inhibition at 10 µM [5]: < 50% | inhibition at 10 µM [1]: 50 to 79% | inhibition at 10 µM [6]: < 50% | inhibition at 10 µM [2]: < 50% | inhibition at 10 µM [7]: < 50% | inhibition at 10 µM [3]: 80 to 100% | inhibition at 10 µM [4]: 80 to 100%

Fc1ccccc1CCNc1ncc2c(n1)-c1cccnc1Nc1cnccc1-2 [Example 43, N-[2-(2-fluorophenyl)ethyl]-9H-dipyrido[2,3-b:4′,3′-f]pyrimido[4,5-d]azepin-2-amine]
inhibition at 10 µM [5]: < 50% | inhibition at 10 µM [1]: 50 to 79% | inhibition at 10 µM [2]: < 50% | inhibition at 10 µM [7]: < 50% | inhibition at 10 µM [3]: 80 to 100% | inhibition at 10 µM [4]: 80 to 100%

CCN(CC)CCCNc1ncc2c(n1)-c1cccnc1Nc1cnccc1-2 [Example 44, N′-9H-dipyrido[2,3-b:4′,3′-f]pyrimido[4,5-d]azepin-2-yl-N,N-diethylpropane-1,3-diamine]
inhibition at 10 µM [5]: < 50% | inhibition at 10 µM [1]: 80 to 100% | inhibition at 10 µM [6]: < 50% | inhibition at 10 µM [2]: < 50% | inhibition at 10 µM [7]: < 50% | inhibition at 10 µM [4]: < 50%

COc1ccc(CNc2ncc3c(n2)-c2cccnc2Nc2cnccc2-3)cc1OC [Example 47, N-(3,4-dimethoxybenzyl)-9H-dipyrido[2,3-b:4′,3′-f]pyrimido[4,5-d]azepin-2-amine]
inhibition at 10 µM [5]: 50 to 79% | inhibition at 10 µM [1]: < 50% | inhibition at 10 µM [6]: < 50% | inhibition at 10 µM [2]: 50 to 79% | inhibition at 10 µM [7]: < 50% | inhibition at 10 µM [3]: 80 to 100% | inhibition at 10 µM [4]: 80 to 100%

Clc1cccc(CNc2ncc3c(n2)-c2cccnc2Nc2ccccc2-3)c1 [Example 61, N-(3-chlorobenzyl)-9H-pyrido[2,3-b]pyrimido[4,5-d][1]benzazepin-2-amine]
inhibition at 10 µM [5]: < 50% | inhibition at 10 µM [1]: < 50% | inhibition at 10 µM [6]: < 50% | inhibition at 10 µM [2]: < 50% | inhibition at 10 µM [8]: < 50%

OCCc1cccc(Nc2ncc3c(n2)-c2cccnc2Nc2ccccc2-3)c1 [Example 67, 2-[3-(9H-pyrido[2,3-b]pyrimido[4,5-d][1]benzazepin-2-ylamino)phenyl]ethanol]
inhibition at 10 µM [5]: < 50% | inhibition at 10 µM [1]: 50 to 79% | inhibition at 10 µM [6]: < 50% | inhibition at 10 µM [2]: 50 to 79% | inhibition at 10 µM [7]: 80 to 100%
